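Abbreviation: GI50, concentration required for 50% inhibition of growth. TGI marks complete inhibition of growth.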
What was measured:
Experiment in all cases: growth of human tumour cells (NCI), 384-well format
[1] = tested on: SW-620 colon
[2] = tested on: RXF 393 renal
[3] = tested on: SNB-19 CNS
[4] = tested on: MCF7 breast
[5] = tested on: SK-MEL-28 melanoma
[6] = tested on: SR leukemia
[7] = tested on: HL-60(TB) leukemia
[8] = tested on: MDA-MB-231 breast
[9] = tested on: NCI-H522 lung
[10] = tested on: BT-549 breast
[11] = tested on: UO-31 renal
[12] = tested on: TK-10 renal
[13] = tested on: HCT-15 colon
[14] = tested on: MALME-3M melanoma
[15] = tested on: PC-3 prostate
[16] = tested on: UACC-257 melanoma
[17] = tested on: ACHN renal
[18] = tested on: IGROV1 ovarian
[19] = tested on: HT29 colon
[20] = tested on: RPMI-8226 leukemia
[21] = tested on: T-47D breast
[22] = tested on: A498 renal
[23] = tested on: SK-OV-3 ovarian
[24] = tested on: MDA-MB-435 melanoma
[25] = tested on: NCI-H460 NSCLC
[26] = tested on: SN12C renal
[27] = tested on: HOP-62 NSCLC
[28] = tested on: OVCAR-4 ovarian
[29] = tested on: NCI-H226 lung
[30] = tested on: UACC-62 melanoma
[31] = tested on: SF-539 CNS
[32] = tested on: OVCAR-8 ovarian
[33] = tested on: SF-295 CNS
[34] = tested on: HOP-92 NSCLC
[35] = tested on: NCI-H23 lung
[36] = tested on: HS 578T breast
[37] = tested on: OVCAR-5 ovarian
[38] = tested on: COLO 205 colon
[39] = tested on: U251 glioblastoma
[40] = tested on: CAKI-1 renal
[41] = tested on: 786-0 renal
[42] = tested on: NCI/ADR-RES ovarian
[43] = tested on: OVCAR-3 ovarian
[44] = tested on: HCT-116 colon
[45] = tested on: KM12 colon
[46] = tested on: EKVX NSCLC
[47] = tested on: SNB-75 CNS
[48] = tested on: HCC-2998 colon
[49] = tested on: LOX IMVI melanoma
[50] = tested on: DU-145 prostate
[51] = tested on: NCI-H322M lung
[52] = tested on: MDA-MB-468 breast
[53] = tested on: SK-MEL-5 melanoma
[54] = tested on: M14 melanoma
[55] = tested on: A549 NSCLC
[56] = tested on: SF-268 CNS
[57] = tested on: MOLT-4 leukemia

SMILES: C=C1C[C@@H]2[C@H](CC[C@]3(C)C(=O)CC[C@@H]23)[C@@]2(C)C=CC(=O)C=C12
- GI50 [1]: 33.9 µM
- TGI [1]: > 100 µM
- GI50 [2]: 5.67 µM
- TGI [2]: 17.4 µM
- GI50 [3]: 46.5 µM
- TGI [3]: > 100 µM
- GI50 [4]: 18.6 µM
- TGI [4]: 82.4 µM
- GI50 [5]: > 100 µM
- TGI [5]: > 100 µM
- GI50 [6]: 18 µM
- TGI [6]: 32.1 µM
- GI50 [7]: 12.8 µM
- TGI [7]: 25.6 µM
- GI50 [8]: 28.8 µM
- TGI [8]: 85.1 µM
- GI50 [9]: 12.2 µM
- TGI [9]: 24.8 µM
- GI50 [10]: 14.9 µM
- TGI [10]: 31.1 µM
- GI50 [11]: 21.1 µM
- TGI [11]: 39.5 µM
- GI50 [12]: > 100 µM
- TGI [12]: > 100 µM
- GI50 [13]: 19 µM
- TGI [13]: > 100 µM
- GI50 [14]: 12.2 µM
- TGI [14]: 25.9 µM
- GI50 [15]: 30.3 µM
- TGI [15]: > 100 µM
- GI50 [16]: 17.3 µM
- TGI [16]: 53.1 µM
- GI50 [17]: 22.3 µM
- TGI [17]: 42.6 µM
- GI50 [18]: 32.6 µM
- TGI [18]: > 100 µM
- GI50 [19]: 23 µM
- TGI [19]: 99.1 µM
- GI50 [20]: 17.8 µM
- TGI [20]: 32.2 µM
- GI50 [21]: 27.6 µM
- TGI [21]: 98.6 µM
- GI50 [22]: 23.3 µM
- TGI [22]: 47.8 µM
- GI50 [23]: 82.2 µM
- TGI [23]: > 100 µM
- GI50 [24]: 82.9 µM
- TGI [24]: > 100 µM
- GI50 [25]: 21.1 µM
- TGI [25]: 40.6 µM
- GI50 [26]: 32.4 µM
- TGI [26]: 98.2 µM
- GI50 [27]: 23.1 µM
- TGI [27]: 56.2 µM
- GI50 [28]: 20.9 µM
- TGI [28]: 40.2 µM
- GI50 [29]: 20.5 µM
- TGI [29]: 39.2 µM
- GI50 [30]: 21.9 µM
- TGI [30]: > 100 µM
- GI50 [31]: 19.6 µM
- TGI [31]: 38.9 µM
- GI50 [32]: 20.3 µM
- TGI [32]: 47.2 µM
- GI50 [33]: 57.1 µM
- TGI [33]: > 100 µM
- GI50 [34]: > 100 µM
- TGI [34]: > 100 µM
- GI50 [35]: 17.9 µM
- TGI [35]: 36.2 µM
- GI50 [36]: 12.3 µM
- TGI [36]: 27.2 µM
- GI50 [37]: > 100 µM
- TGI [37]: > 100 µM
- GI50 [38]: 20.7 µM
- TGI [38]: 37.4 µM
- GI50 [39]: 21.4 µM
- TGI [39]: 44.4 µM
- GI50 [40]: 27 µM
- TGI [40]: 70.7 µM
- GI50 [41]: 19.8 µM
- TGI [41]: 45.8 µM
- GI50 [42]: 17.9 µM
- TGI [42]: 35.3 µM
- GI50 [43]: 14.8 µM
- TGI [43]: 35.9 µM
- GI50 [44]: 27.5 µM
- TGI [44]: > 100 µM
- GI50 [45]: 28 µM
- TGI [45]: 94.9 µM
- GI50 [46]: 28.4 µM
- TGI [46]: 75.7 µM
- GI50 [47]: 25.9 µM
- TGI [47]: 74 µM
- GI50 [48]: 15.8 µM
- TGI [48]: 30 µM
- GI50 [49]: 12.5 µM
- TGI [49]: 27.1 µM
- GI50 [50]: 35.2 µM
- TGI [50]: > 100 µM
- GI50 [51]: 25.1 µM
- TGI [51]: 74.6 µM
- GI50 [52]: 6.15 µM
- TGI [52]: 25.8 µM
- GI50 [53]: 12.9 µM
- TGI [53]: 29.1 µM
- GI50 [54]: 29.3 µM
- TGI [54]: > 100 µM
- GI50 [55]: 30.1 µM
- TGI [55]: > 100 µM
- GI50 [56]: 27.4 µM
- TGI [56]: 74.9 µM
- GI50 [57]: 13.7 µM
- TGI [57]: 27 µM

From PubChem BioAssay (NCI)
